Measured values published in ChEMBL document CHEMBL5291721, “A preclinical secondary pharmacology resource illuminates target-adverse drug reaction associations of marketed drugs” (Nat Commun, 2023).

Tests used:
[1] = target: T1, Muscarinic acetylcholine receptor M2 (Homo sapiens, UniProt P08172); type: functional, cell-based
T1 sequence (P08172 whole entry): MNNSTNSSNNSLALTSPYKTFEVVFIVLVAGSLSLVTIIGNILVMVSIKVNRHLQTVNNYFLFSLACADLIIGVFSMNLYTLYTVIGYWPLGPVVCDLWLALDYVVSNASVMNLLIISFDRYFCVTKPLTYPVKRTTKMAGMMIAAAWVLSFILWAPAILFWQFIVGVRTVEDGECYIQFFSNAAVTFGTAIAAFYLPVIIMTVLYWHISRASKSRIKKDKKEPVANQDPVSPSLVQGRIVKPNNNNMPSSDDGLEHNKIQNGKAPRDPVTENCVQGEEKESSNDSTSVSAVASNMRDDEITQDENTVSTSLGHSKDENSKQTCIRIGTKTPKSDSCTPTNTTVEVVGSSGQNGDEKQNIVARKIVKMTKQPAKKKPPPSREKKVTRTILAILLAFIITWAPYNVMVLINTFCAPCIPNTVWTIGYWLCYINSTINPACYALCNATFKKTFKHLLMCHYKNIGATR

[2] = target: Sodium-dependent dopamine transporter (Homo sapiens, UniProt Q01959)
Adenosine receptor A1 = target: T2, Adenosine receptor A1 (Homo sapiens, UniProt P30542)
T2 sequence (P30542 whole entry): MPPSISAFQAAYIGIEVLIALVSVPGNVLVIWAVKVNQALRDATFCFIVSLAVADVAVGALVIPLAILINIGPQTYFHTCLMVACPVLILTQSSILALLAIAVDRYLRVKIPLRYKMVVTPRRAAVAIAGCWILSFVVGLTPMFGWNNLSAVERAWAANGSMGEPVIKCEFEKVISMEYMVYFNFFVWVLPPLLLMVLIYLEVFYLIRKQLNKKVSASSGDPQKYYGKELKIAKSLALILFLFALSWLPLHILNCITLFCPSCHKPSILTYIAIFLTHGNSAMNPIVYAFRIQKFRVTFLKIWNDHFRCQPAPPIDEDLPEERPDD

[3] = target: T3, Gastrin/cholecystokinin type B receptor (Homo sapiens, UniProt P32239)
T3 sequence (P32239 whole entry): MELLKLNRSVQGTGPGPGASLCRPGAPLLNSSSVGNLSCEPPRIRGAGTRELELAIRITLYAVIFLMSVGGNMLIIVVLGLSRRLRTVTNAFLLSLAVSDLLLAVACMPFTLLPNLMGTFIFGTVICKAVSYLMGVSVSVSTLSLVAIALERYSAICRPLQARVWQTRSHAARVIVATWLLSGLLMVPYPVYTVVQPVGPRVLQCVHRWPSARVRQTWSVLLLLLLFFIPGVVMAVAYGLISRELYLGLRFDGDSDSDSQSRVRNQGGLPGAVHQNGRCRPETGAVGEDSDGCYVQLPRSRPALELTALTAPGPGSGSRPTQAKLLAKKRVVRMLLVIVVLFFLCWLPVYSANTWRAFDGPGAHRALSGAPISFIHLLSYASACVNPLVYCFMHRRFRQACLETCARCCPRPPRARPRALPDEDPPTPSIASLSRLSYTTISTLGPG

[4] = target: Sodium-dependent serotonin transporter (Homo sapiens, UniProt P31645)
Cannabinoid receptor 1 = Cannabinoid receptor 1 (Homo sapiens, UniProt P21554); type: functional, cell-based
Histamine H2 receptor = Histamine H2 receptor (Homo sapiens, UniProt P25021); type: functional, cell-based
[5] = target: 5-hydroxytryptamine receptor 2A (Homo sapiens, UniProt P28223); type: functional, cell-based
Vasopressin V1a receptor = Vasopressin V1a receptor (Homo sapiens, UniProt P37288)
Motilin receptor = Motilin receptor (Homo sapiens, UniProt O43193)
Endothelin-1 receptor = target: T4, Endothelin-1 receptor (Homo sapiens, UniProt P25101)
T4 sequence (P25101 whole entry): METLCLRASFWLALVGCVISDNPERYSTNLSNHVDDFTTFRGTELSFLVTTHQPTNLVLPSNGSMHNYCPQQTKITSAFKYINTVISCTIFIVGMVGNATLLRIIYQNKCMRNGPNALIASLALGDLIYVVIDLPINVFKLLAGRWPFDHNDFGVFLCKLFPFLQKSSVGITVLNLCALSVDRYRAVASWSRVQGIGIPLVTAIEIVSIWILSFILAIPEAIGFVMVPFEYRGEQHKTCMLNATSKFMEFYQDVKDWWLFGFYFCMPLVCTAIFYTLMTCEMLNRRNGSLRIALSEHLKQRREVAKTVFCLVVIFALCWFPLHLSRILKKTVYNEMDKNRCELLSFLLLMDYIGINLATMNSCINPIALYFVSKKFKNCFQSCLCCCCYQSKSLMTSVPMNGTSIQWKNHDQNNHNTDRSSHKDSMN

[6] = target: T5, Alpha-1A adrenergic receptor (Homo sapiens, UniProt P35348); type: functional, cell-based
T5 sequence (P35348 whole entry): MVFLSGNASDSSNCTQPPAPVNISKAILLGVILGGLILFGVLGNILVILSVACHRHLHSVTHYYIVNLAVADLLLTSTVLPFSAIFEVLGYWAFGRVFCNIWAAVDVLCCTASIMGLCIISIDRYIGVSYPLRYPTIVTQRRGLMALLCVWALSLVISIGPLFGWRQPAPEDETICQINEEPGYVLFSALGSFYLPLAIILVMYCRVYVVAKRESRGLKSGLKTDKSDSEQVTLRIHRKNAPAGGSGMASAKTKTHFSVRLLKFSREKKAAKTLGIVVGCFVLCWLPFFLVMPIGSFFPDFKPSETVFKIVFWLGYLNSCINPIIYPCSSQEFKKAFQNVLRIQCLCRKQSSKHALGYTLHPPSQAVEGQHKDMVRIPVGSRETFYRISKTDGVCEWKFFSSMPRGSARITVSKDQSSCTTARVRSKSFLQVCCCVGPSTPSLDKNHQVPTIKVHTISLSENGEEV

Vasopressin V2 receptor = Vasopressin V2 receptor (Homo sapiens, UniProt P30518)
[7] = target: cGMP-inhibited 3',5'-cyclic phosphodiesterase 3A (Homo sapiens, UniProt Q14432); type: functional
[8] = target: 5-hydroxytryptamine receptor 2B (Homo sapiens, UniProt P41595); type: functional, cell-based
[9] = target: Beta-2 adrenergic receptor (Homo sapiens, UniProt P07550)
Also: assay procedure not described here.

Chain of Vasopressin V2 receptor (P30518 whole entry): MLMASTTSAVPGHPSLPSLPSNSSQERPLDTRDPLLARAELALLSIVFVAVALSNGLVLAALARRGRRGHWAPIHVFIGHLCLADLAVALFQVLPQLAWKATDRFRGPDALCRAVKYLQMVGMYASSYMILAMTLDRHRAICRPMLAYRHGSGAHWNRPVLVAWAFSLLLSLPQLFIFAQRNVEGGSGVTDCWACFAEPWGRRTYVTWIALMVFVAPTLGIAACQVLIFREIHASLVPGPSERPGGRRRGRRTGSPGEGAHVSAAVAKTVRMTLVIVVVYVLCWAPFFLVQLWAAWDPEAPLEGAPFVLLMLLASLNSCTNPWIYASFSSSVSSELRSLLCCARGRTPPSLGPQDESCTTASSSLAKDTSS
Chain of Histamine H2 receptor (P25021 whole entry): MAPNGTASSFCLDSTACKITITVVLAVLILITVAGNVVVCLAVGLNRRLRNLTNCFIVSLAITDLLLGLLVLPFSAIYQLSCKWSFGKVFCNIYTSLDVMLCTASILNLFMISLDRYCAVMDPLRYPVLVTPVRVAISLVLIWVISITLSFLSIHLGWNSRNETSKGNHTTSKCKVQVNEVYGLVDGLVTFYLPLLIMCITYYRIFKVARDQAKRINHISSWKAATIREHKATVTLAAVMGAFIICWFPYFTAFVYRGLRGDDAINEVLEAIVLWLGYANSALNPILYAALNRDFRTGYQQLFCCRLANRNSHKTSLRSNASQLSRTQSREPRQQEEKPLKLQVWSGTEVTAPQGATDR
Chain of Sodium-dependent serotonin transporter (P31645 whole entry): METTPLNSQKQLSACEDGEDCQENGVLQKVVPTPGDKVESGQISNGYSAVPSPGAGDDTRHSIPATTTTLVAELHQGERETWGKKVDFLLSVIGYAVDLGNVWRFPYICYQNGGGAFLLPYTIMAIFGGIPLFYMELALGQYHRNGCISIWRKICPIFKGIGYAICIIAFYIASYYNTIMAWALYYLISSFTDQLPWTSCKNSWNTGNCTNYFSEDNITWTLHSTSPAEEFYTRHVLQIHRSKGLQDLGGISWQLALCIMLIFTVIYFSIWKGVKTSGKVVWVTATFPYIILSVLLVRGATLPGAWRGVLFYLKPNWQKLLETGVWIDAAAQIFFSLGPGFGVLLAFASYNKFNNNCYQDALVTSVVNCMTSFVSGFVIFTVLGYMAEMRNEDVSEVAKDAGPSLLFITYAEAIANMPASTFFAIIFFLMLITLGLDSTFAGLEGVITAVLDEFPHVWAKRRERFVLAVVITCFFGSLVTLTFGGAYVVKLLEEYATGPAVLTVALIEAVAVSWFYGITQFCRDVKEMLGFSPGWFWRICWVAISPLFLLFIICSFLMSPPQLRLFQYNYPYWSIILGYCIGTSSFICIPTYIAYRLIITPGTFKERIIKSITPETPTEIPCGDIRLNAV
Chain of cGMP-inhibited 3',5'-cyclic phosphodiesterase 3A (Q14432 whole entry): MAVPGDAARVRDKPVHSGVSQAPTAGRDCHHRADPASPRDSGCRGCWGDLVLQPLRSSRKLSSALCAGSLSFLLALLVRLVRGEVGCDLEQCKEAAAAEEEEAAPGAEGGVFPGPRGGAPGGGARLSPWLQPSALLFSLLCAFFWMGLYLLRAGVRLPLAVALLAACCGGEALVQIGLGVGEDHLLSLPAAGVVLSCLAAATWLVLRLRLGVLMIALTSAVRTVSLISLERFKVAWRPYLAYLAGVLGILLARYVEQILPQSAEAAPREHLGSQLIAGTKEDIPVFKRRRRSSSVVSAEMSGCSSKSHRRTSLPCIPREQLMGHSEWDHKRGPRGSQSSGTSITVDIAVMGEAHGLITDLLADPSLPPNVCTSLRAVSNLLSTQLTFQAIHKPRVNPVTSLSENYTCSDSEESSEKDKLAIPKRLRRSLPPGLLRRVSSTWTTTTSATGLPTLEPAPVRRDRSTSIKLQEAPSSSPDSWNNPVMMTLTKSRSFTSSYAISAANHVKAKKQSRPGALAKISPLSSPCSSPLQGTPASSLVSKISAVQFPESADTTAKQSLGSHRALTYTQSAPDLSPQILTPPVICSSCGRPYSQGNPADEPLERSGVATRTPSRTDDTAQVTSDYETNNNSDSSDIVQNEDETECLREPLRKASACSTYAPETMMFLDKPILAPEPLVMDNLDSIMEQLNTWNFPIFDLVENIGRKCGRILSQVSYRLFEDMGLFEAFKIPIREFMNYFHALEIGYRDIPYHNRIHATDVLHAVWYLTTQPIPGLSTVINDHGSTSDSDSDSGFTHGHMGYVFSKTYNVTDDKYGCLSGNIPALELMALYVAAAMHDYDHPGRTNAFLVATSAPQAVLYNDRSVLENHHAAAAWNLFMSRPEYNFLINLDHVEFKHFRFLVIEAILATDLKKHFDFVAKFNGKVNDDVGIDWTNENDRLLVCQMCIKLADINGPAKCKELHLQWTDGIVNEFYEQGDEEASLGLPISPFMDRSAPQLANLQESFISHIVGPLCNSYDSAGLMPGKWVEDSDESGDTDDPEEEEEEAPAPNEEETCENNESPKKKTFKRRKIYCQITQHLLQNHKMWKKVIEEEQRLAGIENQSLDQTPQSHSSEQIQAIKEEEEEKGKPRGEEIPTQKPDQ
Chain of Cannabinoid receptor 1 (P21554 whole entry): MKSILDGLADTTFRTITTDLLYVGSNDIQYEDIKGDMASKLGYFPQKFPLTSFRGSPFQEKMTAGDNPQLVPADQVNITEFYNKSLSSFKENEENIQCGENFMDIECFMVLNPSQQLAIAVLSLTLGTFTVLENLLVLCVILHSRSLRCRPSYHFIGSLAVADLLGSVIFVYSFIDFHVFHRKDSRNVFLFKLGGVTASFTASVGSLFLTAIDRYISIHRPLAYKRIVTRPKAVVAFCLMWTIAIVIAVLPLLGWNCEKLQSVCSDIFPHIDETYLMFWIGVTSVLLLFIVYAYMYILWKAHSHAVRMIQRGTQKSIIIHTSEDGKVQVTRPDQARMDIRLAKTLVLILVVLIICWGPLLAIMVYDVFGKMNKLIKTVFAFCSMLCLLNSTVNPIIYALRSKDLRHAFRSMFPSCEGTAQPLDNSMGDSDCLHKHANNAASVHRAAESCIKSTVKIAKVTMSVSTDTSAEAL
Chain of 5-hydroxytryptamine receptor 2B (P41595 whole entry): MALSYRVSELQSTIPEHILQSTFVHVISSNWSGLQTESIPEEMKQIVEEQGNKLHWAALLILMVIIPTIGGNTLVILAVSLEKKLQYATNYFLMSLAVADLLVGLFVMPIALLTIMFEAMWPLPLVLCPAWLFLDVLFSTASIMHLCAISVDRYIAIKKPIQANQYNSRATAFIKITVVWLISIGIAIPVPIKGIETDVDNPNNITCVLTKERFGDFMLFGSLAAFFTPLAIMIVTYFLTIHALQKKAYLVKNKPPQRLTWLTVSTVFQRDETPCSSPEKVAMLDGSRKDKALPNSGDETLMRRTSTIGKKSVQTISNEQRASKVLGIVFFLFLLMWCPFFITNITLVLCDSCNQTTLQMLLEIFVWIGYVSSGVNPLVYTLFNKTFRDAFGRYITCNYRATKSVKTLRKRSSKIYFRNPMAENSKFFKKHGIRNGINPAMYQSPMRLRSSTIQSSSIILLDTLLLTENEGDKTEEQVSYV
Chain of Sodium-dependent dopamine transporter (Q01959 whole entry): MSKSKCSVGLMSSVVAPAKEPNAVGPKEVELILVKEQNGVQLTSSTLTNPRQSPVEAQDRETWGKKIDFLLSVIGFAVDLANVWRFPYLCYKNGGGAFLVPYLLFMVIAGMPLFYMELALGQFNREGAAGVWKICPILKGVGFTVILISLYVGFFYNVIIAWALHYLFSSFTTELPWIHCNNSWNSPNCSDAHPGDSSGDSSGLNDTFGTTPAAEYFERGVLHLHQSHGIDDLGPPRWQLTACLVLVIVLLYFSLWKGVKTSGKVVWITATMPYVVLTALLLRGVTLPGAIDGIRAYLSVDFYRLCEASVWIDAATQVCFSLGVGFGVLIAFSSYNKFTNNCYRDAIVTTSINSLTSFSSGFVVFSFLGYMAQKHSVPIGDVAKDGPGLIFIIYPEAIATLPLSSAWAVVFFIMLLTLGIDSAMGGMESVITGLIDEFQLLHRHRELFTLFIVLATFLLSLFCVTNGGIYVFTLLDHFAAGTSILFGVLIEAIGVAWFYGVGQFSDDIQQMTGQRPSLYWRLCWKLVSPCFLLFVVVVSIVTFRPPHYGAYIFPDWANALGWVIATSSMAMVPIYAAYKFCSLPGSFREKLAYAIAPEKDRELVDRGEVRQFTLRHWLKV
Chain of Vasopressin V1a receptor (P37288 whole entry): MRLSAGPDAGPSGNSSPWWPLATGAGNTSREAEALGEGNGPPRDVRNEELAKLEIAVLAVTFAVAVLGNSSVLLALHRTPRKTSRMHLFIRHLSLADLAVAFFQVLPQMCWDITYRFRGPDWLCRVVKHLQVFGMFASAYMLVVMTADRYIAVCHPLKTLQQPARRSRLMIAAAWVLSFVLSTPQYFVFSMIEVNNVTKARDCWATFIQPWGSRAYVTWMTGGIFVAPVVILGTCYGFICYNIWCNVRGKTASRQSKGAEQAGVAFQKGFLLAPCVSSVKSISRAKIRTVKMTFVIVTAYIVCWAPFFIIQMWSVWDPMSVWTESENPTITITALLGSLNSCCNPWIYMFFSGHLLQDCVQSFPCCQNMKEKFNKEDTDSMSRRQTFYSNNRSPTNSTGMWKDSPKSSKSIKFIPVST
Chain of 5-hydroxytryptamine receptor 2A (P28223 whole entry): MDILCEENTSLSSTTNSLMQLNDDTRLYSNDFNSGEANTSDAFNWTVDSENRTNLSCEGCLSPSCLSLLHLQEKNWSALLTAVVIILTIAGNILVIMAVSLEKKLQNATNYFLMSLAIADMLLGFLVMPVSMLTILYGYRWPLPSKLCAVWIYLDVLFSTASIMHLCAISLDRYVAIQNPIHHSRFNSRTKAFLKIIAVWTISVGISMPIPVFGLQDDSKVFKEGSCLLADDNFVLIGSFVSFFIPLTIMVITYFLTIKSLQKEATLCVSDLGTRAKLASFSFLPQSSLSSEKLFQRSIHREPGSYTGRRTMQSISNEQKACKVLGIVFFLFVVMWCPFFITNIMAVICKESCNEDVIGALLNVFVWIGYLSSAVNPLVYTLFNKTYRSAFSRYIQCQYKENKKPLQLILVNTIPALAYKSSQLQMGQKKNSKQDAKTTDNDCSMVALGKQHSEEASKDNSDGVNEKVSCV

Compound	AC50 [1]	AC50 [2]	AC50 (Adenosine receptor A1)	AC50 [3]	AC50 [4]	AC50 (Cannabinoid receptor 1)	AC50 (Histamine H2 receptor)	AC50 [5]	AC50 (Vasopressin V1a receptor)	AC50 (Motilin receptor)	AC50 (Endothelin-1 receptor)	AC50 [6]	AC50 (Vasopressin V2 receptor)	AC50 [7]	AC50 [8]	AC50 [9]
CCCCC1(CC)C(=O)NC(=O)NC1=O [BUTETHAL]	> 30 µM	> 30 µM	> 30 µM	> 30 µM	> 30 µM	> 30 µM	> 30 µM	> 30 µM	> 30 µM	> 30 µM	> 30 µM	> 30 µM	> 30 µM	> 30 µM	> 30 µM	
C=CC1=C(C(=O)O)N2C(=O)[C@@H](NC(=O)/C(=N\OCC(=O)O)c3csc(N)n3)[C@H]2SC1 [CEFIXIME]	> 30 µM	> 30 µM	> 30 µM	> 30 µM	> 30 µM	> 30 µM	> 30 µM	> 30 µM	> 30 µM	> 30 µM	> 30 µM	> 30 µM	> 30 µM	> 30 µM	> 30 µM	
CO[C@@]1(NC(=O)Cc2cccs2)C(=O)N2C(C(=O)O)=C(COC(N)=O)CS[C@@H]21 [CEFOXITIN]	> 30 µM	> 30 µM	> 30 µM	> 30 µM	> 30 µM	> 30 µM	> 30 µM	> 30 µM	> 30 µM	> 30 µM	> 30 µM	> 30 µM	> 30 µM	> 30 µM	> 30 µM	
CCN(CC)CCOC(=O)c1ccc(N)cc1Cl [CHLOROPROCAINE]	> 30 µM	> 30 µM	> 30 µM	> 30 µM	> 30 µM	> 30 µM	> 30 µM	> 30 µM	> 30 µM	> 30 µM	> 30 µM	> 30 µM	> 30 µM	> 30 µM	> 30 µM	
COCCOC(=O)C1=C(C)NC(C)=C(C(=O)OC/C=C/c2ccccc2)C1c1cccc([N+](=O)[O-])c1 (stereo not given) [CILNIDIPINE]	> 30 µM	> 30 µM	> 30 µM	> 30 µM	> 30 µM	> 30 µM	> 30 µM	> 30 µM	> 30 µM	24 µM	> 30 µM	> 30 µM	> 30 µM	> 30 µM	> 30 µM	
C[C@@H]1C[C@H]2[C@@H]3C[C@H](F)C4=CC(=O)C=C[C@]4(C)[C@@]3(F)[C@@H](O)C[C@]2(C)[C@H]1C(=O)CO [DIFLUCORTOLONE]		> 30 µM			> 30 µM			> 30 µM						> 30 µM	> 30 µM	
O=C(O)c1ccccc1OP(=O)(O)O [FOSFOSAL]	> 30 µM	> 30 µM	> 30 µM	> 30 µM	> 30 µM	> 30 µM	> 30 µM	> 30 µM	> 30 µM	> 30 µM	> 30 µM	> 30 µM	> 30 µM	9.8 µM	> 30 µM	
CCCC[C@H](C)C[C@H](O)/C=C/[C@H]1[C@H](O)CC(=O)[C@@H]1CCCC/C=C/C(=O)O [LIMAPROST]	> 30 µM	> 30 µM	> 30 µM	> 30 µM	> 30 µM	> 30 µM	> 30 µM	> 30 µM	> 30 µM	> 30 µM	> 30 µM	> 30 µM	> 30 µM	> 30 µM	> 30 µM	
Cc1ccc(NC(=O)C2(c3ccc4c(c3)OC(F)(F)O4)CC2)nc1-c1cccc(C(=O)O)c1 [LUMACAFTOR]	> 30 µM	> 30 µM	> 30 µM	> 10 µM	> 30 µM	> 30 µM	> 30 µM	> 30 µM	> 30 µM	> 30 µM	> 30 µM	> 30 µM	> 30 µM	> 30 µM	> 30 µM	
CCOC(=O)Nc1ccc2c(c1)N(C(=O)CCN1CCOCC1)c1ccccc1S2 [MORICIZINE]	> 30 µM	> 30 µM	> 30 µM	> 30 µM	> 30 µM	> 30 µM	> 30 µM	> 30 µM	> 30 µM	> 30 µM	> 30 µM	> 30 µM	> 30 µM	> 30 µM	> 30 µM	
CN1CCN(c2c(F)cc3c(=O)c(C(=O)O)cn4c3c2SCC4)CC1 [RUFLOXACIN]	> 30 µM	> 30 µM	> 30 µM	> 30 µM	> 30 µM	> 30 µM	> 30 µM	> 30 µM	> 30 µM	> 30 µM	> 30 µM	> 30 µM	> 30 µM	> 30 µM	> 30 µM	
CN1c2ccccc2C(NCCCCCCC(=O)O)c2ccc(Cl)cc2S1(=O)=O (stereo not given) [TIANEPTINE]	> 30 µM	> 30 µM	> 30 µM	> 30 µM		> 30 µM	> 30 µM	> 30 µM	> 30 µM	> 30 µM	> 30 µM	> 30 µM	> 30 µM	> 30 µM	> 30 µM	> 30 µM
COc1cc2c(Nc3ccc(Br)cc3F)ncnc2cc1OCC1CCN(C)CC1 [VANDETANIB]	> 30 µM	14 µM	> 30 µM	> 10 µM	3.4 µM	> 30 µM	> 30 µM	> 30 µM	> 30 µM	> 30 µM	> 30 µM	> 30 µM	> 30 µM	> 30 µM	> 30 µM	
